Reference: PubChem BioAssay (NCI)
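How tested: cells in 96-well plates exposed to compound for 48 hours at five concentrations. GI50 marks 50% less growth. At the TGI there is no net growth.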

Assays:
Assay in all cases: DTP human tumour cell line panel, 48 h
[1] = tested on: SW-620 colon
[2] = tested on: ACHN renal
[3] = tested on: OVCAR-5 ovarian
[4] = tested on: HS 578T breast
[5] = tested on: HCC-2998 colon
[6] = tested on: LOX IMVI melanoma
[7] = tested on: NCI-H23 lung
[8] = tested on: A549 NSCLC
[9] = tested on: M14 melanoma
[10] = tested on: SK-OV-3 ovarian

Compound	GI50 [1] [µM]	TGI [1] [µM]	GI50 [2] [µM]	TGI [2] [µM]	GI50 [3] [µM]	TGI [3] [µM]	GI50 [4] [µM]	TGI [4] [µM]	GI50 [5] [µM]	TGI [5] [µM]	GI50 [6] [µM]	TGI [6] [µM]	GI50 [7] [µM]	TGI [7] [µM]	GI50 [8] [µM]	TGI [8] [µM]	GI50 [9] [µM]	TGI [9] [µM]	GI50 [10] [µM]	TGI [10] [µM]
C=CC(=O)N[C@H]1CCOC[C@H]1Nc1ncc2cc(-c3c(Cl)c(OC)cc(OC)c3Cl)ccc2n1	27.5	> 100	15.8	> 100	45.1	> 100	17.8	> 100	32.7	> 100	14.9	48.9	22	> 100	30.5	> 100	11.8	40.2	26.9	> 100
COc1cccc2c1C(=O)c1c(O)c3c(c(O)c1C2=O)C[C@@](O)(C(=O)CO)C[C@@H]3OC1C[C@H](N)[C@H](O)[C@H](C)O1 (some centres not stated)	0.0312	2.97	0.0257	0.242	0.214	14.5	0.132		0.0678	0.34	0.0178	0.181	0.0484	0.234	0.0355	> 50	0.0846	0.404	0.107	10.9
Cc1ccc(SC2=CC(=O)c3nc4ccccc4c4ccnc2c34)cc1	23.1	47.9	31	> 100	> 79.9	> 100	43.8	> 95	> 67.8	> 100	28.5	> 100	24.7	> 73.9	> 79.8	> 100	51.9	> 100	> 100	> 100
Cc1cc(=O)oc2cc(OCc3c(F)cccc3Cl)ccc12				> 100		> 100		99.1				> 100		> 100		> 100		> 100		
COc1ccc(/C=C\c2cc(OC)c(OC)c(OC)c2)cc1OC(=O)CCC(=O)O		> 100		> 100				> 100				> 100		> 100	0.157	> 100			0.0442	> 100
c1cn2cc(-c3ccc4cn[nH]c4c3)nc(Nc3ccc(N4CCOCC4)cc3)c2n1	26.7	> 100	11.1	32.2			11.1	63.8	61.6	> 100	17.8	> 100	15.2	55	10.4	28.8	15.1	62.3	6.43	19.6
CN(C)C(=O)c1cc2cnc(Nc3ccc(-c4csc5c(=O)cc(N6CCOCC6)oc45)cc3)nc2n1C1CCCC1	0.153	1	0.187	1.25			0.134	0.648	0.219	1.2	0.112	0.353	0.182	0.87	0.213	> 100	0.184	0.601	0.478	2.88
O=C(O)c1cc2cc(OCc3ccccc3)c(OCc3ccccc3)cc2[nH]1	21.8	53.8	25.4	90.1	29.1	87.9	22	64.5	18.7	34.7	18.1	35.4	17.2	38.1			24.2	60.8	29.5	> 100
CSc1ccc2c3c(n(C[C@H](O)CO)c(=O)c2c1)-c1ccccc1C3=O	0.978	43.6			3.1	10.6	15.8	78.8	3.32	18			2.95	12.7	1.04	3.47	4.09	58.3	6.06	34.2
O=C(Nc1ccccc1O)c1ccc(Oc2cccc(C(=O)Nc3ccccc3O)c2)cc1	3.42	12.7	2.64	11.9	12.9	35	2.05	12.2	3.62	11.9	2.24	12.2	2.99	11.3	2.91	16.6			4.42	17.2
Cc1cc(NS(=O)(=O)c2ccc(NC(=O)c3cccc4c(Nc5ccc(S(=O)(=O)N=C(N)N)cc5)c5ccccc5nc34)cc2)no1		> 100		> 100		> 100				> 100		> 100		> 100		> 100		> 100		> 100
COc1ccc(-c2ccc(-c3ccc(-c4ccc(C(=N)N)cc4)s3)s2)cc1OC	0.882	4.2	3.79	15.3	1.44	3.6	21.2	48.1					2.43	6.26			3.16	11.3	14.5	37.3
O=C(OCC1CO1)c1cccs1 (configuration not stated)		> 100		> 100		> 100				> 100		> 100		> 100		> 100		> 100		> 100
Nc1c(C(=O)Nc2ccccc2)[n+]([O-])c2ccccc2[n+]1[O-]		38.3		30.1		37.5				32.2		28.6		28.8		68		32.8		> 100
CCN(CCCl)CCCNc1c2ccccc2nc2ccc(OC)cc12		1.39		1.34	286				436			0.669	382			1300	213		446	
CC(=O)OC1(C)C(=O)OC1(C)C(C)=O (configuration not stated)		> 100		> 100		> 100				> 100		> 100		> 100		> 100		> 100		> 100
